From patent publication US10703757B2, “Compounds and methods for CDK8 modulation and indications therefor” (Plexxikon Inc., priority 2016, dated 2020)

Test system: CDK8 (phosphorylation of STAT1 at serine 727 in A549 cells)
Assay: Cell based Phospho-STAT1 assay (IFNγ-stimulated A549 cells, AlphaLISA)
Conditions: Homo sapiens, A549, A549 cells, phospho-STAT1 after IFNγ stimulation
Description: Determine Inhibitor Activity Against CDK8 in Cell Based Phospho-STAT1 Assay
This assay measures the phosphorylation of the CDK8 substrate STAT1 following Interferon-gamma (IFNγ) stimulation^1. The lung carcinoma cell line A549 is seeded in a 96 well plate in 50 μL of culture media at 5×10^4 cells/well and incubated at 37° C. overnight. Serial dilutions of compounds (in total volume of 50 μL culture media) are added to the cells and incubated at 37° C. for one hour. Human IFNγ (R&D Systems) is added to the cells at a 10 ng/mL final concentration. 4 wells containing DMSO treated cells stimulated with IFNγ serve as high controls and 4 wells containing DMSO treated unstimulated cells serve as low controls. After 30 minute IFNγ stimulation at 37° C., the culture media is removed and 50 μL of 1×AlphaLISA lysis buffer (PerkinElmer GA, USA) is added to each well. 5 μL cell lysate is transferred to a 384 well AlphaPlate (PerkinElmer GA, USA) and 5 μL containing 0.156 nM Phospho-STAT1 (Ser727) rabbit monoclonal antibody (Cell Signaling Technology), 0.156 nM Mouse Anti-STAT1 antibody (BD Transduction Laboratories), and 10 μg/mL Anti-rabbit IgG AlphaLISA acceptor beads (PerkinElmer GA, USA) diluted in 1× AlphaLISA immunoassay buffer (PerkinElmer GA, USA) is added to the cell lysates and incubated at room temperature for 90 minutes. 5 μL Anti-Mouse IgG Alpha donor beads diluted in 1× AlphaLISA immunoassay buffer (PerkinElmer GA, USA) is added to the reaction mixture and incubated at room temperature for 90 minutes. Upon excitation of these beads with laser light at 680 nm, singlet oxygen is produced. This singlet oxygen is rapidly quenched, unless the AlphaLISA Anti-Rabbit IgG acceptor beads are in close proximity, in which case a proximity signal can be measured at […]. In the presence of cellular CDK8 catalytic activity, there is a very strong proximity signal. Selective CDK8 inhibitors affect a decrease in this proximity signal through a decrease in phosphorylation of STAT1 at serine 727. The percentage inhibition at individual concentrations relative to high and low controls is calculated. The data are analyzed by using nonlinear regression to generate IC50 values.

Row | IC50 [nM] | SMILES
1 | 100 to 1000 | CN1CCN(c2cccc3ncc(-c4ccc(-c5cnn(C)c5)cc4)n23)CC1 [Compound P-0394, 3-(4-(1-methyl-1H-pyrazol-4-yl)phenyl)-5-(4-methylpiperazin-1-yl)imidazo[1,2-a]pyridine]
2 | 1000 to 10000 | Cn1cc(C#Cc2cnc3cccc(N4CCC(CC(N)=O)CC4)n23)cn1 [Compound P-0294, 2-(1-(3-((1-methyl-1H-pyrazol-4-yl)ethynyl)imidazo[1,2-a]pyridin-5-yl)piperidin-4-yl)acetamide]
3 | 0.1 to 100 | CCOC(=O)C1CCN(c2cccc3ncc(-c4ccc(-c5cnn(C)c5)cc4)n23)CC1 [Compound P-0447, ethyl 1-(3-(4-(1-methyl-1H-pyrazol-4-yl)phenyl)imidazo[1,2-a]pyridin-5-yl)piperidine-4-carboxylate]
4 | 100 to 1000 | Cc1noc(-c2ccc(-c3cnn4cccc(N5CCC(C#N)(c6ccccn6)CC5)c34)cc2)n1 [Compound P-0351, 1-(3-(4-(3-methyl-1,2,4-oxadiazol-5-yl)phenyl)pyrazolo[1,5-a]pyridin-4-yl)-4-(pyridin-2-yl)piperidine-4-carbonitrile]
5 | 1000 to 10000 | Cn1cc(-c2ccc(-c3cnn4cccc(-c5ccnc(C#N)c5)c34)cc2)cn1 [Compound P-0425, 4-[3-[4-(1-methylpyrazol-4-yl)phenyl]pyrazolo[1,5-a]pyridin-4-yl]pyridine-2-carbonitrile]
6 | 1000 to 10000 | CNC(=O)C1CCN(c2cccc3ncc(-c4ccc(-c5cnn(C)c5)cc4)n23)CC1 [Compound P-0380, N-methyl-1-(3-(4-(1-methyl-1H-pyrazol-4-yl)phenyl)imidazo[1,2-a]pyridin-5-yl)piperidine-4-carboxamide]
7 | 1000 to 10000 | Cn1ncc2cc(-c3nnc4cccc(C5=CCC(C#N)CC5)n34)ccc21 (stereo not shown) [Compound P-0345, 4-(3-(1-methyl-1H-indazol-5-yl)-[1,2,4]triazolo[4,3-a]pyridin-5-yl)cyclohex-3-ene-1-carbonitrile]
8 | 1000 to 10000 | FC(F)n1cc(-c2ccc(-c3cccn4ncc(-c5ccc(-c6cnn(C(F)F)c6)cc5)c34)cc2)cn1 [Compound P-0371, 3,4-bis(4-(1-(difluoromethyl)-1H-pyrazol-4-yl)phenyl)pyrazolo[1,5-a]pyridine]
9 | 1000 to 10000 | Cn1cc(-c2ccc(-c3cnc4cccc(N5CCC(CO)CC5)n34)cc2)cn1 [Compound P-0434, [1-[3-[4-(1-methylpyrazol-4-yl)phenyl]imidazo[1,2-a]pyridin-5-yl]-4-piperidyl]methanol]
10 | 100 to 1000 | Cn1cc(-c2ccc(-c3cnn4cccc(C#CC5(O)CCNCC5)c34)cc2)cn1 [Compound P-0338, 4-((3-(4-(1-methyl-1H-pyrazol-4-yl)phenyl)pyrazolo[1,5-a]pyridin-4-yl)ethynyl)piperidin-4-ol]
11 | 1000 to 10000 | COC(=O)CC1CCN(c2cccc3ncc(C#Cc4cnn(C)c4)n23)CC1 [Compound P-0312, methyl 2-(1-(3-((1-methyl-1H-pyrazol-4-yl)ethynyl)imidazo[1,2-a]pyridin-5-yl)piperidin-4-yl)acetate]
12 | 100 to 1000 | Cn1cc(Nc2ncc(-c3cnc4cccc(N5CCC6(CC5)C(=O)Nc5ccccc56)n34)cn2)cn1 [Compound P-0453, 1′-(3-(2-((1-methyl-1H-pyrazol-4-yl)amino)pyrimidin-5-yl)imidazo[1,2-a]pyridin-5-yl)spiro[indoline-3,4′-piperidin]-2-one]
13 | 1000 to 10000 | CC(C)(O)C#Cc1cccn2ncc(-c3ccc(S(=O)(=O)N4CCCCC4)cc3)c12 [Compound P-0413, 2-methyl-4-(3-(4-(piperidin-1-ylsulfonyl)phenyl)pyrazolo[1,5-a]pyridin-4-yl)but-3-yn-2-ol]
14 | 0.1 to 100 | Cn1cc(-c2ccc(-c3cnn4cccc(N5CCC(C#N)(c6ccccn6)CC5)c34)cc2)cn1 [Compound P-0365, 1-(3-(4-(1-methyl-1H-pyrazol-4-yl)phenyl)pyrazolo[1,5-a]pyridin-4-yl)-4-(pyridin-2-yl)piperidine-4-carbonitrile]
15 | 100 to 1000 | COc1ncc(-c2cnn3cccc(C#CC(C)(C)O)c23)cn1 [Compound P-0288, 4-(3-(2-methoxypyrimidin-5-yl)pyrazolo[1,5-a]pyridin-4-yl)-2-methylbut-3-yn-2-ol]
16 | 1000 to 10000 | Cn1ncc2cc(-c3cnn4ccnc(N5CCC(C#N)CC5)c34)ccc21 [Compound P-0326, 1-[3-(1-methylindazol-5-yl)pyrazolo[1,5-a]pyrazin-4-yl]piperidine-4-carbonitrile]

Row | IC50 [nM] | SMILES
17 | 1000 to 10000 | Cn1cc(-c2ccc(-c3cnc4cccc(NCc5cccnc5)n34)cc2)cn1 [Compound P-0377, 3-(4-(1-methyl-1H-pyrazol-4-yl)phenyl)-N-(pyridin-3-ylmethyl)imidazo[1,2-a]pyridin-5-amine]
18 | 1000 to 10000 | Cn1cc(-c2ccc(C3=C4C(C5CCC(C#N)CC5)=CC=CN4NC3)cc2)cn1 (stereo not shown) [Compound P-0302, 4-(3-(4-(1-methyl-1H-pyrazol-4-yl)phenyl)-1,2-dihydropyrazolo[1,5-a]pyridin-4-yl)cyclohexane-1-carbonitrile]
19 | 100 to 1000 | Cn1cncc1C#Cc1cnc2cccc(N3CCC4(CC3)C(=O)Nc3ccccc34)n12 [Compound P-0376, 1′-[3-[2-(3-methylimidazol-4-yl)ethynyl]imidazo[1,2-a]pyridin-5-yl]spiro[indoline-3,4′-piperidine]-2-one]
20 | 0.1 to 100 | N#CC1CCN(c2cccn3ncc(-c4ccc(-c5nc(C6CC6)no5)cc4)c23)CC1 [Compound P-0423, 1-(3-(4-(3-cyclopropyl-1,2,4-oxadiazol-5-yl)phenyl)pyrazolo[1,5-a]pyridin-4-yl)piperidine-4-carbonitrile]
21 | 100 to 1000 | CCC(O)(C#Cc1cccn2ncc(-c3ccc(-c4cnn(C)c4)cc3)c12)CC [Compound P-0373, 3-ethyl-1-(3-(4-(1-methyl-1H-pyrazol-4-yl)phenyl)pyrazolo[1,5-a]pyridin-4-yl)pent-1-yn-3-ol]
22 | 0.1 to 100 | Cn1cc(-c2ccc(-c3cnc4cccc(N5CCN(c6cccnc6)CC5)n34)cc2)cn1 [Compound P-0386, 3-(4-(1-methyl-1H-pyrazol-4-yl)phenyl)-5-(4-(pyridin-3-yl)piperazin-1-yl)imidazo[1,2-a]pyridine]
23 | 1000 to 10000 | Cn1cc(-c2ccc(-c3cnc4cccc(N5CCC(C(O)c6cccnc6)CC5)n34)cc2)cn1 (stereo not shown) [Compound P-0384, (1-(3-(4-(1-methyl-1H-pyrazol-4-yl)phenyl)imidazo[1,2-a]pyridin-5-yl)piperidin-4-yl)(pyridin-3-yl)methanol]
24 | 0.1 to 100 | Cn1ncc2cc(-c3cnn4cccc(N5CCC(C#N)(c6ccccn6)CC5)c34)ccc21 [Compound P-0364, 1-(3-(1-methyl-1H-indazol-5-yl)pyrazolo[1,5-a]pyridin-4-yl)-4-(pyridin-2-yl)piperidine-4-carbonitrile]
25 | 100 to 1000 | Cn1cc(-c2ccc(-c3cnc4cccc(N5CCC(C(N)=O)C5)n34)cc2)cn1 (stereo not shown) [Compound P-0378, 1-(3-(4-(1-methyl-1H-pyrazol-4-yl)phenyl)imidazo[1,2-a]pyridin-5-yl)pyrrolidine-3-carboxamide]
26 | 1000 to 10000 | NC(=O)N1CCC(Oc2cccc3ncc(-c4ccc(-c5cnn(C(F)F)c5)cc4)n23)CC1 [Compound P-0299, 4-((3-(4-(1-(difluoromethyl)-1H-pyrazol-4-yl)phenyl)imidazo[1,2-a]pyridin-5-yl)oxy)piperidine-1-carboxamide]
27 | 100 to 1000 | Cn1cc(-c2ccc(-c3cnn4cccc(C5=CCS(=O)(=O)CC5)c34)cc2)cn1 [Compound P-0300, 4-(3-(4-(1-methyl-1H-pyrazol-4-yl)phenyl)pyrazolo[1,5-a]pyridin-4-yl)-3,6-dihydro-2H-thiopyran 1,1-dioxide]
28 | 1000 to 10000 | Cn1cc(C#Cc2cnc3cccc(N4CCC5(CC4)COC5)n23)cn1 [Compound P-0354, 7-(3-((1-methyl-1H-pyrazol-4-yl)ethynyl)imidazo[1,2-a]pyridin-5-yl)-2-oxa-7-azaspiro[3.5]nonane]
29 | 1000 to 10000 | CC(=O)N1CC=C(c2cccc3ncc(-c4ccc(-c5cnn(C)c5)cc4)n23)CC1 [Compound P-0436, 1-(4-(3-(4-(1-methyl-1H-pyrazol-4-yl)phenyl)imidazo[1,2-a]pyridin-5-yl)-3,6-dihydropyridin-1(2H)-yl)ethan-1-one]
30 | 100 to 1000 | Cn1cc(-c2ccc(-c3cnc4cccc(NCCCO)n34)cc2)cn1 [Compound P-0390, 3-((3-(4-(1-methyl-1H-pyrazol-4-yl)phenyl)imidazo[1,2-a]pyridin-5-yl)amino)propan-1-ol]
31 | 0.1 to 100 | Cn1ncc2cc(-c3cnn4cccc(C#CC(C)(C)O)c34)ccc21 [Compound P-0414, 2-methyl-4-(3-(1-methyl-1H-indazol-5-yl)pyrazolo(1,5-a]pyridin-4-yl)but-3-yn-2-ol]
